From patent publication US20220062299A1, “USE OF GLUCOCORTICOID STEROIDS IN PREVENTING AND TREATING CONDITIONS OF MUSCLE WASTING, AGING AND METABOLIC DISORDER” (NORTHWESTERN UNIVERSITY, priority 2018, published 2022) come the findings set out here.

Data set [1] deals with mdx muscles. In words: Muscle metabolomics of mdx quadriceps. It is filed as in vivo, mouse. The conditions noted are these: 4 wk exposure. How it is done:
Muscle metabolomics. Total hydrophilic metabolite content was extracted from quadriceps muscle tissue at treatment endpoint through methanol-water (80:20) extraction, adapting conditions described previously (Bruno et al., 2018). Briefly, total metabolite content from quadriceps muscle was obtained from approximately 100 mg (wet weight) quadriceps muscle tissue per animal. Frozen (−80° C.) muscle was pulverized in liquid nitrogen and homogenized with approximately 250 μl 2.3 mm zirconia/silica beads (Cat #11079125z, BioSpec, Bartlesville, Okla.) in 1 ml methanol/water 80:20 (vol/vol) by means of Mini-BeadBeater-16 (Cat #607, Biospec, Bartlesville, Okla.) for 1 minute. After centrifuging at 5000 rpm for 5 minutes, 200 μl of supernatant were transferred into a tube pre-added with 800 μL of ice-cold methanol/water 80% (vol/vol). Samples were vortexed for 1 minute, and then centrifuged at approximately 20,160×g for 15 minutes at 4° C. Metabolite-containing extraction solution was then dried using SpeedVac (medium power). 200 ul of 50% Acetonitrile were added to the tube for reconstitution following by overtaxing for 1 minute. Samples solution were then centrifuged for 15 minutes at 20,000 g, 4° C. Supernatant was collected for LC-MS analysis for Hydrophilic Metabolites Profiling as follows. Samples were analyzed by High-Performance Liquid Chromatography and High-Resolution Mass Spectrometry and Tandem Mass Spectrometry (HPLC-MS/MS). Specifically, system consisted of a Thermo Q-Exactive in line with an electrospray source and an Ultimate3000 (Thermo) series HPLC consisting of a binary pump, degasser, and auto-sampler outfitted with a Xbridge Amide column (Waters; dimensions of 4.6 mm×100 mm and a 3.5 μm particle size). The mobile phase A contained 95% (vol/vol) water, 5% (vol/vol) acetonitrile, 20 mM ammonium hydroxide, 20 mM ammonium acetate, pH=9.0; B was 100% Acetonitrile. […] The capillary of the ESI source was set to 275° C., with sheath gas at 45 arbitrary units, auxiliary gas at 5 arbitrary units and the spray voltage at 4.0 kV. In positive/negative polarity switching mode, an m/z scan range from 70 to 850 was chosen and MS1 data was collected at a resolution of 70,000. The automatic gain control (AGC) target was set at 1×10^6 and the maximum injection time was 200 ms. The top 5 precursor ions were subsequently fragmented, in a data-dependent manner, using the higher energy collisional dissociation (HCD) cell set to 30% normalized collision energy in MS2 at a resolution power of 17,500. The sample volumes of 25 μl were injected. Data acquisition and analysis were carried out by Xcalibur 4.0 software and Tracefinder 2.1 software, respectively (both from Thermo Fisher Scientific). Metabolite levels were analyzed as peak area normalized to wet tissue weight and total […] content. Gene-metabolite pathway enrichment was conducted using the MetaboAnalyst platform (v4.0; Joint Pathway Analysis mode) (Chong et al., 2018). Pulsatile glucocorticoid exposure enhanced mitochondrial respiration in dystrophic muscle through BCAA. […] This correlated with increased catabolism of BCAAs, seen as reduced levels of precursors and intermediates and increased levels of oxoglutarate and succinate in the TCA cycle (FIG. 1B, center). […] Opposing shifts were confirmed by HPLC analyses of muscle ATP and NAD^+and by resting blood lactate (FIGS. 5A and 5B), and these changes correlated with parallel shifts in muscle glycogen content (FIG. 5C).

Data set [2] has as its system Dysf-null mice. Briefly: Body weight, muscle mass, muscle function, plethysmography, echocardiography, Dysf-null mice, 32 weeks. It is filed as in vivo, mouse. The conditions noted are these: weekly prednisone. How it is done: Histology. Excised tissues (muscles, omental fat, heart) were placed in 10% formaldehyde (Cat #245-684; Fisher Scientific, Waltham, Mass.) for histologic processing. Seven μm sections from the center of paraffin-embedded muscles were stained with hematoxylin and eosin (H&E; cat #12013B, 1070C; Newcomer Supply, Middleton, Wis.) and Masson's trichrome (Cat #HT-15; Sigma-Aldrich; St. Louis, Mo.). Myofiber/adipocyte CSA quantitation was conducted on 400 myofibers/adipocytes per tissue per mouse. Imaging was performed using a Zeiss Axio Observer A1 microscope, using 10× and 20× (short-range) objectives. Brightfield pictures were acquired via Gryphax software (version 1.0.6.598; Jenoptik, Jena, Germany). Area quantitation was performed by means of ImageJ (Schneider et al., 2012). Sample processing, imaging and CSA quantitation were conducted blinded to treatment groups.
Muscle function, whole-body plethysmography, echocardiography. Forelimb grip strength was monitored using a meter (Cat #1027SM; Columbus Instruments, Columbus, Ohio) blinded to treatment groups. Animals performed ten pulls with 5 seconds rest on a flat surface between pulls. Immediately before sacrifice, in situ tetanic force from tibialis anterior muscle was measured using a Whole Mouse Test System (Cat #1300A; Aurora Scientific, Aurora, ON, Canada) with a 1N dual-action lever arm force transducer (3000-LR, Aurora Scientific, Aurora, ON, Canada) in anesthetized animals (0.8 I/min of 1.5% isoflurane in 100% O2). […] Time of contraction was assessed as time to max tetanic value within the 0.0-0.5 sec range of each tetanic contraction, while time of relaxation was assessed as time to 90% min tetanic value within the 0.5-0.8 sec range of every tetanus. […] Data was recorded for a total of 15 minutes broken into 3 consecutive 5-minute periods. […] Cardiac function was assessed by echocardiography, which was conducted under anesthesia (0.8 L/min of 1.5% vaporized isoflurane in 100% O2) on mice between 2 and 5 days before sacrifice. […]

Data set [3] concerns mdx mice. Briefly: Dosing of metabolic and endocrine biomarkers in blood, serum and tissues, mdx mice, long-term (40 weeks) weekly prednisone. It is filed as in vivo.

As to `C[C@]12C=CC(=O)C=C1CC[C@@H]1[C@@H]2C(=O)C[C@@]2(C)[C@H]1CC[C@]2(O)C(=O)CO` [prednisone, Prednisone], in data set [1] (daily prednisone), the “BCAA and glucose catabolism” value is recorded as “substantial impairment”; the “NAD+ and NADH in muscle” value is “loss”. In addition, in data set [1] (weekly prednisone), the “Glycolysis (levels of pyruvate and lactate)” value is given as “increased”; the “catabolism of BCAAs” value is “increased”. Besides, in data set [1] (weekly prednisone, vs vehicle), the “ATP, phosphocreatine, and NAD+ in muscle” value was “increased”. Moreover, in data set [2], the body weight trend entry is on record as “did not induce significant changes”; the muscle mass result is listed as “increased”; the “performance of limb muscles, respiratory muscles, and heart” value is “improved”. The “ATP, NAD+, and glycogen in muscle and blood lactate” value in data set [3] was “increase”.
